Assays:
SULT2B1b = SULT2B1b (Homo sapiens (Human), UniProt O00204); assay: Coupled chromogenic SULT2B1b inhibition assay; assay type: biochemical; conditions: for IC50: coupled chromogenic in vitro assay, optimized conditions, mean±s.e.m., n=3
Protocol: Optimized Coupled Chromogenic SULT2B1b Activity Assay. For 96-well Format: Working concentrations of IMPAD1 (0.1 mg/mL in 1× activity assay buffer), PAPS (1 mM in 1× activity assay buffer), and DHEA (2.5 mM in DMSO) were prepared. Two technical replicates were assayed for each sample. Reaction mixes were prepared by mixing 10 μL PAPS stock solution, 10 μL IMPAD1 stock solution, 4 μL 2.5 mM DHEA or DMSO, and 16 μL activity assay buffer to make […] reaction mix. Amount of reaction mix was scaled accordingly to number of samples assayed. 25 μL of reaction mix was dispensed to each well. SULT2B1b was diluted to 1.5 μg/μL in protein storage buffer then down to 0.8 μg/μL in 1X activity assay buffer. 25 μL of 0.8 μg/μL SULT2B1b was added to each well. The reaction was incubated at 37° C. for 45 minutes, then quenched by addition of 30 μL of malachite green solution A, followed by addition of 30 μL of malachite green solution B. The plate was left at room temperature for 20 minutes for color stabilization, then absorbance was read at 620 nm. IMPAD1 activity control was 10 μL of 0.1 mg/mL IMPAD1 mixed with 40 μL activity assay buffer. 25 μL of the IMPAD1 dilution was added to 25 μL of 0.1 mM PAP.
Coupled Chromogenic SULT2B1b Inhibition Assay. For 96-well Format: Working stock solutions of IMPAD1 (0.1 mg/mL in 1× activity assay buffer), PAPS (1 mM in 1X activity assay buffer), compound of interest (5 mM in DMSO) and DHEA (5 mM in DMSO) were prepared. Two technical replicates were assayed for each sample. […] The reaction was incubated at 37° C. for 45 minutes, then quenched by addition of 30 μL of malachite green solution A, followed by addition of 30 μL of malachite green solution B. The plate was left at room temperature for 20 minutes for color stabilization, then absorbance was read at 620 nm. […]
Percent inhibition was calculated as: 100−[100×[(Phosphate produced per wellaverage,compound of interest−Phosphate produced per wellaverage, DMSO)/(Phosphate produced per wellaverage, DHEA−Phosphate produced per wellaverage, DMSO)]]. […]

MCF-7 cells = assay: Alamar blue cellular cytotoxicity, MCF-7; assay type: cell-based; conditions: MCF-7, 72 hours
Protocol: Alamar Blue Fluorescence for Cellular Activity (IC50). Cells were seeded per well in a 96-well plate (5000 for MCF-7, 4000 for T47D, 7000 for mouse embryonic fibroblasts) and allowed to adhere before DMSO solutions of compounds were added to each well. Final concentration of DMSO in each well is 1%, final volume: 100 μL. At the end of 72 hours, Alamar Blue solution was added (10 μL of 1 mg resazurin per 10 mL PBS). After 2-4 hours incubation, fluorescence (λexcit.=555 nm, λemission.=585 nm) was measured. The fluorescence of each well was read with a SpectraMax M3 plate reader (Molecular Devices). Percent dead was determined by comparison to a 100% dead control: 100 μM Raptinal treated cells.
Whole cell cytotoxicity-MCF-7. Cell cytotoxicity was assessed to ensure compound concentrations used the whole cell assays would not kill the cells. Alamar blue cell cytotoxicity assay: 5000 cells were seeded per well in a 96-well plate and allowed to adhere before DMSO solutions of compounds were added to each well. Final concentration of DMSO in each well is 1%, with a final volume of 100 μl. […] After 2 to 4 hours of incubation, fluorescence (λexcitation=555 nm, λemission=585 nm) was measured. Percent dead was determined by comparison to a 100% dead control: 100 μM Raptinal-treated cells (FIG. 6).

SULT2B1b, sequence (O00204 whole entry): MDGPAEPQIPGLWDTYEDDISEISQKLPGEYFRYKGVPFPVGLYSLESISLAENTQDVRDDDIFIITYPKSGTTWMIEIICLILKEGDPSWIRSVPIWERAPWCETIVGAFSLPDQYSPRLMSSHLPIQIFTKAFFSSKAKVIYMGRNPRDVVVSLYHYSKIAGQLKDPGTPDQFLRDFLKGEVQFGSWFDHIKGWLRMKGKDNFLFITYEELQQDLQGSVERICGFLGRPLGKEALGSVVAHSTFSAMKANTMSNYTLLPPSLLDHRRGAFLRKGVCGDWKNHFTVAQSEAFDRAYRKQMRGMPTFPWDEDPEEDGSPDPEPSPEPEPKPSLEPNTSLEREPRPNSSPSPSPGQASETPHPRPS

| SMILES | IC50 (SULT2B1b) [µM] | percent inhibition (SULT2B1b; initial medium throughput screen) [%] | suitable sub-lethal treatment concentration (MCF-7 cells) [µM] |
| --- | --- | --- | --- |
| C[C@]12CCC(=O)N(Cc3ccc(Cl)cc3)C1=CC[C@@H]1[C@@H]2C(=O)C[C@]2(C)C(=O)CC[C@@H]12 [Compound 1, (4aR,4bS,6aS,9aS,9bS)-1-(4-chlorobenzyl)-4a,6a-dimethyl-3,4,4a,6,6a,8,9,9a,9b,10-decahydro-1H-indeno[5,4-f]quinoline-2,5,7(4bH)-trione] | 34 ± 4 | 48 | 6.25 |
| C[C@]12CCC(=O)N(Cc3ccc(Br)cc3)C1=CC[C@@H]1[C@@H]2C(=O)C[C@]2(C)C(=O)CC[C@@H]12 [Compound 3, (4aR,4bS,6aS,9aS,9bS)-1-(4-bromobenzyl)-4a,6a-dimethyl-3,4,4a,6,6a,8,9,9a,9b,10-decahydro-1H-indeno[5,4-f]quinoline-2,5,7(4bH)-trione] |  |  | 6.25 |
| C[C@]12CC[C@H](O)CC1=CC[C@@H]1[C@@H]2CC[C@]2(C)C(n3cnc4ccccc43)=CC[C@@H]12 [Compound 2, Galeterone, reference compound] | 41 ± 7 |  |  |

Reference: US20240400606A1, “SMALL MOLECULE ACTIVATORS OF THE IMMUNE SYSTEM” (THE BOARD OF TRUSTEES OF THE UNIVERSITY OF ILLINOIS, priority 2021, published 2024)
